According to US10111437B2, “Substituted guanidines as fungicides” (Nippon Soda Co., Ltd., priority 2015, dated 2018):

What was measured:
[1] = test system: cucumber gray mold fungus (Botrytis cinerea); test: Cucumber gray mold control test (foliar spray on cucumber seedlings); settings: in Cucumis sativus, 96 h, read-out: control value
[2] = test system: Tomato late blight fungus (Phytophthora infestans); test: whole plant or invertebrate; assay type: in vivo; settings: foliar, 96 h, read-out: control value
[3] = test system: Apple scab fungus (Venturia inaequalis); test: Apple scab control test (foliar spray on apple seedlings); assay type: in vivo; settings: 125 ppm active ingredient, sprayed on apple seedlings (variety Orin) before inoculation, vs untreated
Method: The dilution was sprayed to apple seedlings (variety “Orin”, 3 to 4 leaf stage) grown in clay pots. […] The control value was calculated by the following equation. [formula]

[4] = test system: wheat leaf rust fungus (Puccinia recondita); test: Wheat leaf rust control test (foliar spray on wheat seedlings); assay type: in vivo; settings: 240 h, 125 ppm active ingredient, sprayed on wheat seedlings (variety Norin 61) before inoculation, 10 days, vs untreated

Measured: pest or weed control at 125 ppm

N=C(N)c1ccc(OCCCCN2CCN(CCCCOc3ccc(C(=N)N)cc3)C2=N)cc1 [compound 6, 4-[4-[3-[4-(4-carbamimidoylphenoxy)butyl]-2-imino-imidazolidin-1-yl]butoxy]benzamidine]
≥ 75%: all assays above

N=C(N)NCCCCCCCN1CCN(CCCCCCCNC(=N)N)C1=N [compound 8, 1-[7-[3-(7-guanidinoheptyl)-2-imino-imidazolidin-1-yl]heptyl]guanidine]
≥ 75%: all assays above

N=C(NCCCCOc1ccc(C(=N)N)cc1)NCCCCOc1ccc(C(=N)N)cc1 [compound 10, 4-[4-[[N-[4-(4-carbamimidoylphenoxy)butyl]carbamimidoyl]amino]butoxy]benzamidine]
≥ 75%: all assays above

N=C(N)NCCCCCCCNC(=N)NCCCCOc1ccc(C(=N)N)cc1 [compound 16, 4-[4-[[N-(7-guanidinoheptyl)carbamimidoyl]amino]butoxy]benzamidine]
≥ 75%: [4]

N=C(NCCCC#Cc1ccc(C(=N)N)cc1)NCCCC#Cc1ccc(C(=N)N)cc1 [compound 22, 4-[5-[[N-[5-(4-carbamimidoylphenyl)pent-4-ynyl]carbamimidoyl]amino]pent-1-ynyl]benzamidine]
≥ 75%: all assays above

N=C(N)NCCCCCCCn1ccn(CCCOc2ccc(C(=N)N)cc2)c1=N [compound 25, 4-[3-[3-(7-guanidinoheptyl)-2-imino-imidazol-1-yl]propoxy]benzamidine]
≥ 75%: all assays above

N=C(N)NCCCCCCCNC(=N)NCCOCc1cc(C(=N)N)cs1 [compound 48, 5-[2-[[N-(7-guanidinoheptyl)carbamimidoyl]amino]ethoxymethyl]thiophene-3-carboxamidine]
≥ 75%: [1] | [3] | [4]

N=C(N)NCCCCCCCNC(=N)NCCCC#Cc1nc(C(=N)N)cs1 [compound 50, 2-[5-[[N-(7-guanidinoheptyl)carbamimidoyl]amino]pent-1-ynyl]thiazole-4-carboxamidine]
≥ 75%: [1] | [3] | [4]

N=C(N)NCCCCCNC(=N)NCCCCOc1ccc(C(=N)N)cc1 [compound 59]
≥ 75%: [1] | [3] | [4]

CN(CCCOc1ccc(C(=N)N)cc1)C(=N)NCCCOc1ccc(C(=N)N)cc1 [compound 72]
≥ 75%: [1] | [3] | [4]

N=C(N)c1ccc(OCCCn2ccn(CCCOc3ccc(C(=N)N)cc3)c2=N)cc1 [compound 89]
≥ 75%: [2] | [3] | [4]

CNCCNC(=N)NCCCCCCCCNC(=N)NCCCCOc1ccc(C(=N)N)cc1 [compound 147]
≥ 75%: [1] | [2] | [3]

N=C(N)c1ccc(OCCCn2cc(-c3ccccc3)n(CCCOc3ccc(C(=N)N)cc3)c2=N)cc1 [compound 149]
≥ 75%: [1] | [2] | [3]

N=C(NCC#Cc1ccc(C(=N)N)cc1)NCC#Cc1ccc(C(=N)N)cc1 [compound 155]
≥ 75%: [1] | [2] | [3]

N=C(N)c1ccc(COCCCn2ccn(CCCOc3ccc(C(=N)N)cc3)c2=N)cc1 [compound 159]
≥ 75%: [1] | [2] | [3]

N=C(N)c1ccc(SCCCn2ccn(CCCSc3ccc(C(=N)N)cc3)c2=N)cc1 [compound 181]
≥ 75%: [1] | [2] | [3]

N=C(N)NCCCCCCCNC(=N)NCCCOc1ccc(C2=NCCCN2)cc1 [compound 190]
≥ 75%: [1] | [2] | [3]

N=C(NCCCCOc1ccc(C(=N)N)cc1)NCCCc1cc2cc(C(=N)N)ccc2o1 [compound 196]
≥ 75%: [1] | [2] | [3]

N=C(N)NCCCCCCCCNC(=N)NCCCSc1ccc(C(=N)N)cc1 [compound 198]
≥ 75%: [1] | [2] | [3]

N=C(N)NCCCCCCCNC(=N)NCCCCOc1ccc(C2=NCCCN2)cc1 [compound 202]
≥ 75%: [1] | [2] | [3]

N=C(N)NCCCCCCCCNC(=N)NCCCCOc1ccc(C2=NCCCN2)cc1 [compound 204]
≥ 75%: [1] | [2] | [4]

N=C(N)NCCCCCCCn1ccn(CCCCOc2ccc(C3=NCCCN3)cc2)c1=N [compound 208]
≥ 75%: [1] | [2] | [3]

N=C(N)NCCCCCCCCn1ccn(CCCCOc2ccc(C3=NCCCN3)cc2)c1=N [compound 210]
≥ 75%: [1] | [2] | [3]

N=C(N)NCCCCCCCCCn1ccn(CCCCOc2ccc(C3=NCCCN3)cc2)c1=N [compound 212]
≥ 75%: [1] | [2] | [3]

N=C(N)c1ccc(OCCCCn2ccn(CCCCOc3ccc(C4=NCCCN4)cc3)c2=N)cc1 [compound 214]
≥ 75%: [1] | [2] | [3]

N=C(N)NCCCCCCCCn1ccn(CCCCOc2ccc(C(=N)N)cc2)c1=N [compound 216]
≥ 75%: [1] | [2] | [4]

N=C(N)NCCCCCCCCCNC(=N)NCCCOc1ccc(C2=NCCCN2)cc1 [compound 218]
≥ 75%: [1] | [2] | [4]

N=C(N)NCCCCCCCNC(=N)NCCCOCc1ccc(C2=NCCCN2)cc1 [compound 224]
≥ 75%: [1] | [2] | [3]

N=C(N)NCCCCCCCNC(=N)NCCOc1ccc(C(=N)N)cc1 [compound 236]
≥ 75%: [1] | [3] | [4]

N=C(N)NCCCCCCCNC(=N)NCCOCc1ccc(C2=NCCCN2)cc1 [compound 238]
≥ 75%: [1] | [3] | [4]

N=C(N)NCCCCCCCNC(=N)NCCCCOc1ccc(C2=NCCN2)cc1 [compound 244]
≥ 75%: [1] | [3] | [4]

N=C(N)NCCCCCCCCNC(=N)NCCCCCOc1ccc(C2=NCCCN2)cc1 [compound 248]
≥ 75%: [1] | [2] | [4]

N=C(N)NCCCCCCCCNC(=N)NCCCOCc1ccc(C2=NCCCN2)cn1 [compound 250]
≥ 75%: [1] | [2] | [3]

N=C(N)NCCCCCCCCNC(=N)NCCCc1ccc(C2=NCCCN2)cc1 [compound 252]
≥ 75%: [1] | [2] | [4]

CC1(C)CN=C(c2ccc(OCCCCNC(=N)NCCCCCCCCNC(=N)N)cc2)NC1 [compound 258]
≥ 75%: [1] | [2] | [4]

N=C(N)NCCCCCCCCNC(=N)NCCCc1cc2cc(C3=NCCCN3)ccc2o1 [compound 260]
≥ 75%: [1] | [2] | [4]

N=C(N)NCCCCCCCCNC(=N)NCc1ccc(C2=NCCCN2)cc1 [compound 262]
≥ 75%: [1] | [3] | [4]

N=C(N)NCCCCCCCCNC(=N)NCC1=CC2C=C(C3=NCCCN3)C=CC2O1 (centres unmarked) [compound 268]
≥ 75%: [1] | [2] | [4]

N=C(N)NCCCCCCCCn1ccn(CCOc2ccc(C3=NCCCN3)cc2)c1=N [compound 270]
≥ 75%: [2] | [3] | [4]

N=C(N)NCCCCCCCCn1ccn(CCOc2ccc(C(=N)N)cc2)c1=N [compound 281]
≥ 75%: [1] | [2] | [4]

N=C(N)NCCCCCCCCNC(=N)NCCOc1ccc(C(=N)N)cc1 [compound 286]
≥ 75%: [1] | [4]

N=C(N)NCCCCCCCCNC(=N)NCCOc1ccc2cc(C3=NCCCN3)ccc2c1 [compound 292]
≥ 75%: [2] | [3] | [4]
